Patent US11932654B2, “Nimbolide analogs as anti-cancer agents and preparation thereof” (priority 2018, dated 2024)

Columns and labels:
p21 = assay: Western blotting analysis on Panc-1 cell line, p21; type: cell-based; conditions: panc-1 cells, various concentrations, 24 h, Western blot
Method: (§1) Western blotting analysis of IM-1372-Kn-13 on Panc-1 cell line: The cells were lysed in RIPA buffer (50 mM-tris (PH-7.4), 150 Min-Nacl, 1%-NP-40, 0.1%-SDS, 0.5%-Sodium-deoxycholate, 1 mM EDTA, 5 mM NaF, 5 mM Na—O-vandate, 1 mM PMSF, Protease inhibitor cocktail. The lysates were cleared by centrifugation at […] and concentration of protein was estimated by bradford assay. For Western blot analysis, equivalent amount of protein was resolved in SDS-PAGE and then transferred to polyvinylidene difluoride ([…]) membrane. Ti avoid non specific binding of antibodies, the membranes were blocked using 3% BSA in TBS with 0.5% Tween (TBST) for 1 h at room temperature. The membranes were then incubated in primary antibody overnight at 4° C. After removing excess primary antibody bound to membranes, blots were incubated with secondary anti body. Then the signal emitted was captured using chemiluminescence substrate.

[1] = Biochemical analysis of serum of tumor xenograft mice; type: in vivo, nude mice; conditions: for Albumin / Alkaline phosphatase / Creatinine / Glucose / SGOT / SGPT / Total protein / Urea: xenograft mice, mean ± SE
Method: (§2) Establishment of Pancreatic cancer xenograft model: To establish tumor in mice, Pan-02 cells (7×10^6) were suspended in 1:1 RPMI medium mixed with matrigel and subcutaneously implanted on right flank of the each mice. The injection sites were examined daily for the appearance of tumors. On 10th day these animals were randomized and divided into 3 groups (6 mice in each group). Group I served as control group received 20% ethanol three times in a week. Test group animals in Group II and III received intratumoral injection of IM-1372-Kn-13 at 10 mg and 25 mg/kg body weight respectively three times in a week. All groups received 5 repeated doses in 12 days. Mice were weighed and tumor volumes were measured 3 times a week by Vernier caliper. Tumor volume in individual mice was calculated by the following formula. 0.5×L (W)^2, Where L is length, W is width of the tumor. The control group animals were euthanized when tumor volume is reached heavier to animal. One-week after completion of treatment period, the animals were sacrificed, and tumors were excised, fixed, and embedded in paraffin. At the end of treatment, blood samples were collected to perform clinical biochemistry.
(§3) Biochemical analysis: In acute toxicity experiment, blood samples were collected from all the animals 1 week after the last dose and mice were sacrificed by cervical decapitation. The obtained serum was analyzed in clinical chemistry for the assessment of liver function tests (LFT), activity of serum alkaline phosphatase (ALP), alanine aminotransferase (ALT), aspartate aminotransferase (AST), kidney function tests (RFT) (serum urea and creatinine). The same tests were performed for serum samples collected from three groups of tumor xenograft mice used for determining in vivo activity of test compound against pancreatic cancer. The measurement of these biochemical parameters was done in Clinical Biochemical analyzer (Tulip coralab 3000™).

p53 = assay: Western blotting analysis on Panc-1 cell line, p53; type: cell-based; conditions: panc-1 cells, various concentrations, 24 h, Western blot
Method: as §1

[2] = Biochemical analysis in acute toxicity studies; type: in vivo, mice
Method: as §3

caspase-8 = assay: Caspase assay activity, caspase-8, Panc-1 cells; type: cell-based; conditions: fluorimetric assay, increasing concentrations
Method: Caspase assay activity: Caspase-3, caspase-8 and caspase-9 protease activities were determined using a commercial fluorescence assay kit according to the manufacturer's instructions, Briefly, pancreatic cancer cells were treated with different concentrations of IM-1372-Kn-13 for 24 h were re-suspended in 50 μL of chilled cell lysis buffer; cells were then incubated on ice for 10 min and centrifuged for 1 min in a micro-centrifuge (10,000 g). Then supernatants were transferred (cytosolic extract) to a fresh tube and protein concentration was assayed. Next, diluted 100 μg protein was added to 50 μL cell lysis buffer for each assay. Subsequently, 50 μL of 2× reaction buffer and 5 μL of the 4 mM Ac-DEVD AMC (caspase-3)/Ac-VETD-AMC (caspase-8)/[…] were added and incubated at 37° C. for 2 h (samples read at […] in a microtiter plate reader).

[3] = system: Pan-02 cells xenograft tumors; assay: Pancreatic cancer xenograft model, anti-tumor activity; type: in vivo, nude mice; conditions: for Tumor Volume: 5 doses in 12 days, Pan-02 xenograft, mean ± SE
Method: In vivo studies: Materials and methods: Animals and cell lines: Healthy 8-10 week old nude mice of either sex, weighing between 20 g and 25 g were used as experimental animals for tumor induction. All animals were maintained under standardized animal house conditions (12 h light and 12 h dark condition) at controlled temperature (22±1° C.) and relative humidity (60-70%) in institutional registered animal house that was approved by Committee for the Purpose of Control and Supervision of Experiments on Animals (CPCSEA). They were maintained with standard pellet diet and water ad libitum. The institutional animal ethics committee approved the experimental protocol. CPCSEA guidelines were adhered to during the maintenance of animals and experiments. Pancreatic cancer cell line (Pan-02) was obtained from American Type Culture Collection and was cultured in RPMI medium.
as §2

[4] = single IP dose 5 mg/kg body weight
[5] = single IP dose 10 mg/kg body weight
[6] = single IP dose 25 mg/kg body weight
[7] = single IP dose 50 mg/kg body weight

With COC(=O)C[C@H]1[C@]2(C)C3=C(C)[C@H](C4=CC5OC4C(C(=O)OC)=C5C(=O)OC)C[C@@H]3O[C@@H]2[C@@H]2OC(=O)[C@]3(C)C=CC(=O)[C@@]1(C)C23 (some centres unmarked) [A4] the “expression of p21 protein” value (p21) was “reduced”, the “serum total protein and albumin levels” value ([1]; group II and III compared to control group I) was “significantly increased” and the “serum ALT, AST and ALP enzyme activities” value ([1]; treated xenograft groups vs elevated control group I) was “returned to normal”. The “elevated levels of serum urea and creatinine” value ([1]; tumor-bearing mice, compared to group I) was “significantly fetched down”, the Albumin ([1]; 10 mg/kg) was 3.16 ± 0.2 g/dL and the Alkaline phosphatase ([1]; 10 mg/kg) was 685.26 ± 28.8 U/L. It also gave a Creatinine ([1]; 10 mg/kg) of 1.56 ± 0.4 mg/dL, a Glucose ([1]; 10 mg/kg) of 77.60 ± 3.0 mg/dL and an SGOT ([1]; 10 mg/kg) of 56.12 ± 5.8 U/L. It also gave an SGPT ([1]; 10 mg/kg) of 47.05 ± 5.8 U/L, a Total protein ([1]; 10 mg/kg) of 6.24 ± 0.5 g/dL and a Urea ([1]; 10 mg/kg) of 46.81 ± 5.8 mg/dL. The Albumin ([1]; 25 mg/kg) was 3.61 ± 0.1 g/dL, the Alkaline phosphatase ([1]; 25 mg/kg) was 545.63 ± 24.9 U/L and the Creatinine ([1]; 25 mg/kg) was 0.80 ± 0.1 mg/dL. It also gave a Glucose ([1]; 25 mg/kg) of 108.42 ± 4.7 mg/dL, an SGOT ([1]; 25 mg/kg) of 32.20 ± 2.4 U/L and an SGPT ([1]; 25 mg/kg) of 24.49 ± 4.0 U/L. For the same molecule, the Total protein ([1]; 25 mg/kg) was 8.05 ± 0.3 g/dL, the Urea ([1]; 25 mg/kg) was 41.23 ± 3.7 mg/dL and the “expression of p53 protein” value (p53) was “reduced”. It also gave an ALT [2, 4] of 48 U/L, an AST [2, 4] of 63 U/L and a BUN [2, 4] of 18 mg/dL. It also gave a Cholesterol [2, 4] of 175 mg/dL, a Creatinine [2, 4] of 0.4 mg/dL and a Glucose [2, 4] of 101 mg/dL. For the same molecule, the ALT [2, 5] was 66 U/L, the AST [2, 5] was 66 U/L and the BUN [2, 5] was 21 mg/dL. For the same molecule, the Cholesterol [2, 5] was 175 mg/dL, the Creatinine [2, 5] was 0.4 mg/dL and the Glucose [2, 5] was 100 mg/dL. The ALT [2, 6] was 67 U/L, the AST [2, 6] was 74.5 U/L and the BUN [2, 6] was 24.5 mg/dL. The Cholesterol [2, 6] was 163.5 mg/dL, the Creatinine [2, 6] was 0.35 mg/dL and the Glucose [2, 6] was 96 mg/dL. The ALT [2, 7] was 95 U/L, the AST [2, 7] was 128 U/L and the BUN [2, 7] was 29 mg/dL. It also gave a Cholesterol [2, 7] of 178 mg/dL, a Creatinine [2, 7] of 0.9 mg/dL and a Glucose [2, 7] of 102 mg/dL. The “activity of caspase-8” value (caspase-8) was “increased significantly in a dose-dependent manner”, the “Tumor Volume” value ([3]; 10 mg/kg intratumoral, nude mice) was 181.306 ± 12.7 mm^3 and the “body weight and food intake” value ([3]; 10 mg/kg, 25 mg/kg body weight, intratumoral, nude mice) was “did not cause any loss in body weight and food intake”. For the same molecule, the “Tumor Volume” value ([3]; 25 mg/kg intratumoral, nude mice) was 109.46 ± 7.1 mm^3 and the “average volume of tumors compared to vehicle-treated animals” value ([3]; 10 and 25 mg/kg intratumoral, p<0.0001) was “significantly decreased”.
